Results as given in article PMC8901748, “A novel prostaglandin E receptor 4 (EP4) small molecule antagonist induces articular cartilage regeneration” (Cell Discovery, 2022).

Tests used:
[1] = test system: articular cartilage defect; assay: DMM surgery-induced CD mouse model; format: in vivo, mice (strain C57/BL/6); details: Grapiprant 30 mg/kg, HL-43 10 mg/kg, compared to vehicle
Text: EP4^f/f mice[67] were crossed with the Col2-cre strain to generate Col2-cre; EP4^f/f (EP4^Col2) mice, or were crossed with Aggrecan-creERT2[68] mice to generate EP4^f/f; Aggrecan-CreERT2 (EP4^AcanERT2) mice. Mice were maintained at the animal center of East China Normal University. All mouse experiments were approved by Ethics Committee at East China Normal University. Mice of the same genetic background were generated and raised under identical conditions. Sex-matched littermate mice were compared. For the DMM surgery-induced CD mouse model, WT mice (strain C57/BL/6) or EP4^Acan mice were used, n = 5 for each group. DMM surgery was carried out as previous described using 10-week-old male mice[69],[70]; while Sham-operated mice were used as controls. Knee joints were collected for histological analysis 6 or 8 weeks after surgery. Osteoarthritis Research Society International (OARSI) histopathology grading system was used to evaluate the sections, six sections of the articular cartilage of each mouse were evaluated. Synovitis was assessed by the synovitis score. Therapy with oral EP4 inhibitors was initiated one day after surgery and continued for 8 weeks, n = 8 for each group. EP4 inhibitors and Celecoxib were dissolved in carboxymethylcellulose sodium which is prepared at the concentration of 0.5%, and vehicle contained carboxymethylcellulose sodium alone. The vehicle, Celecoxib, Grapiprant, and HL-43 were delivered to mice at indicated doses daily by gavage, Celecoxib purchased from damas-beta (29322B), Grapiprant was purchased from Yuduobio, Shanghai, all other EP4 antagonists were synthesized by Dr. Hankun Zhang’s lab.
Von Frey nylon filaments were used to test the hind-paw reflex sensitivity to punctate static mechanical stimuli. Mice were habituated to the wire mesh bottom cages for 30 min before the test. von Frey filaments (Aesthesio von Frey Kit, Ugo Basile, Varese, Italy) were applied from underneath the mouse in ascending order to the mid-plantar surface of the hind paws. If withdrawal response was not induced, the next level of von Frey hair was applied until at least six withdrawals occurred in ten stimuli. This minimal force required to elicit 50% positive response was recorded as the paw withdrawal threshold[73],[74].
The paw withdrawal latency (PWL) and threshold (PWT) of thermal hyperalgesia were measured using the Ugo-Basile 37370 plantar test (Comerio, Italy). The mice were placed on a glass plate of constant temperature for 30 min before each test. Thermal thresholds of the ipsilateral hind paws were assessed three times with a 10 min interval between trials. The time(s) from irradiation to paw withdrawal was recorded as the thermal withdrawal latency. […]

[2] = test system: zebrafish embryos; assay: Zebrafish embryo toxicity assay; design: Mortality / Deformities / Hatching: dose or concentration left out as unconfirmed; details: for Mortality: zebrafish embryos; for Deformities / Hatching: zebrafish
Protocol: A breeding stock of zebrafish at the age of 6–24 months is used for egg production. Fertilized eggs were collected and viable eggs were transferred to the 12-well plate at 26 °C. Fertilized eggs between the 4-cell and 128-cell stages be used for the toxicity test, with ten fertilized eggs per concentration and three replicates of each concentration, a total of 30 eggs for each concentration. […] DMSO was added as vehicle control. Hatching, morphological abnormalities and survival were assessed 24 and 72 h of post-fertilization (dpf) in zebrafish exposed to the chemicals.

[3] = test system: articular cartilage defect; assay: Microfracture (MF) surgery-induced cartilage defect (CD) rat model; format: in vivo, Sprague-Dawley (SD) rats; details: hydrogel containing compound; for Cartilage regeneration, appearance of the defect: 6 weeks of post-surgery
Protocol: Ca(NO3)2·4H2O was obtained from Sinopharm Chemical Reagent. Waxy starch (amylopectin more than 90%) was purchased from Qinhuangdao Lihua Starch. For the preparation of starch hydrogels, a fixed water-to-starch mass ratio of 5 was used, and the crosslinker Ca(NO3)2·4H2O was dissolved in the starch solution. The mixture was stirred at 60 °C for 1 h to obtain a viscous gel. The starch hydrogel prepared with Ca(NO3)2·4H2O and Waxy starch was named as 14 Gel. The hydrogel is sterilized by UV for 30 min and then used. HL-43 and Grapiprant were each dissolved in the DMSO solvent (100 mM). Compound/14 Gel was prepared by mixing the solutions at a weight ratio of 1/10 (w/w).
Thirty-six male Sprague-Dawley (SD) rats (280–300 g) were randomized into three groups (each group n = 4 rats for each time point), […] were used as controls (n = 4). After anesthetizing with 3.5% chloral hydrate (10 ml/kg), the rats were fixed on the operating table in supine position and the skin was prepared and disinfected. A 2 cm longitudinal incision along the medial margin of the patella of the right knee was made with a scalpel and then the capsule was open to expose the articular cartilage surface. A manual drill with a diameter of 2 mm was used to drill holes in the femoral intercondylar fossa of the rat (2 mm × 2 mm). After washing with saline, the gauze was pressed and 100 μl 14 Gel containing appropriate drugs or vehicle were injected. After the injection, the compression flexes and compresses were applied several times to spread the gel throughout the knee joint. The ligaments and skin were sutured. After 2, 4, and 6 weeks, the repaired articular cartilage was histologically analyzed and correlation was scored.

[4] = 72 hpf, in comparison to Celecoxib and Grapiprant

Structure (SMILES)	Expression of Col2, Acan, and Sox9 in knee joint [1]	Expression of Mmp13 and ColX in knee joint [1]	Mortality rate, ranking ([2]; 24 hpf, in comparison to Celecoxib and Grapiprant)	Deformities rate, ranking [2, 4]	Hatching rate, ranking [2, 4]	Mortality ([2]; 24hpf, 0.3, n=30)	Mortality ([2]; 24hpf, 1, n=30)	Mortality ([2]; 24hpf, 3, n=30)	Deformities ([2]; 72hpf, 0.3, n=30)	Hatching ([2]; 72hpf, 0.3, n=30)	Deformities ([2]; 72hpf, 1, n=30)	Hatching ([2]; 72hpf, 1, n=30)	Deformities ([2]; 72hpf, 3, n=30)	Hatching ([2]; 72hpf, 3, n=30)	Cartilage repair, ICRS Macroscopic and ICRS Visual Histological scores ([3]; 4 weeks after MF surgery)	Cartilage regeneration, appearance of the defect [3]
C[C@H](NC(=O)c1c(-c2ccccc2)nnn1CCOc1ccc(F)cc1)c1ccc(C(=O)O)cc1 [HL-43]	increased	decreased	lowest mortality rate	lowest deformities rate	highest hatching rate	0/30	3/30	6/30	2/30	28/30	2/30	26/30	4/30	23/30	mild effects on cartilage repair	surfaces were smooth and cartilage layers were regenerated
CCc1nc2c(C)nc(C)cc2n1-c1ccc(CCNC(=O)NS(=O)(=O)c2ccc(C)cc2)cc1 [Grapiprant]	increased	decreased	–	–	–	4/30	14/30	13/30	4/30	24/30	3/30	16/30	4/30	17/30	–	still visible
